Drawing on patent US20240174637A1, “DEGRADERS OF GRK2 AND USES THEREOF” (Sonata Therapeutics, Inc., priority 2021, published 2024), this text covers IC50, inhibition and DC50 for ten compounds.

Structures are written as SMILES. Structures can show the parent of a compound that is named as a salt.

A word on the IC50: it is the point on the concentration scale where inhibition reaches its midpoint.

One test relates to PAXF1657 EV. Nature of the test: 7-day cellular proliferation assay (CellTiter-Glo), PAXF1657 EV. The conditions noted are these: proliferation, read-out: GeoMean IC50 (UM) PAXF1657 EV. In kind it is cell-based. Summed up: (§1)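 PAXF1657 pancreatic cancer cells (GRK2-overexpressing vs empty vector; CRISPR GRK2 knockout vs non-targeting control) were seeded at 500 cells/well in RPMI1640/10% FBS, then given a 10-point series, 30 μM-0.0002 μM in 0.3% DMSO. Medium and compound were refreshed after 3 days; CellTiter-Glo luminescence was read at day 7.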
(In general: Cellular ATP, detected with luciferase, serves as a proxy for viable cell number.)

Test [1] addresses T1, GRK2 (Homo sapiens, UniProt P25098).
T1 sequence (P25098 1-689): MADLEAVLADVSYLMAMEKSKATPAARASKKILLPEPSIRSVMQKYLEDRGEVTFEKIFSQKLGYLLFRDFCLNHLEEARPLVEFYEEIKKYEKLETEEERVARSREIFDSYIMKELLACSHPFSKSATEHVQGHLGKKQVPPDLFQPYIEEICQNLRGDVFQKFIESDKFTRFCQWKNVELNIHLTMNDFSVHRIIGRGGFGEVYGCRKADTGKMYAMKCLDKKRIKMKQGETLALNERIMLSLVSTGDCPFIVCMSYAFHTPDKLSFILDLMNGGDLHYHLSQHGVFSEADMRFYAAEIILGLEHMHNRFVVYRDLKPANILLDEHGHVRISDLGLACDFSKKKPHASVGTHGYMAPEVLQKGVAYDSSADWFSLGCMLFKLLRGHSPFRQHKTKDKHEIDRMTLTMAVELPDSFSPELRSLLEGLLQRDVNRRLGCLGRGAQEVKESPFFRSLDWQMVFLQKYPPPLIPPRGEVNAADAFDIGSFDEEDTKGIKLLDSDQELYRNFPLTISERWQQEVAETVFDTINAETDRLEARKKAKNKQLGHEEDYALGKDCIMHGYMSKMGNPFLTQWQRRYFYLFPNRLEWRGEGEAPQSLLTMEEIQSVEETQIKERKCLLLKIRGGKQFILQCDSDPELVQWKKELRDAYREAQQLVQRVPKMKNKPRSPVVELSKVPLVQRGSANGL
Description: GRK2 Inhibition Assay (TR-FRET, Example 1). The conditions noted are these: Table 4; Example 1 assay; read-out: Enzymatic GRK2 IC50: Av IC50 GRK2. The test is classed as biochemical. Summed up:
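GRK2 (1 nM) pre-incubated 30 min RT with compounds in HEPES/MgCl2/DTT/Tween-20/EGTA buffer, then reacted 90 min RT with 7 μM ATP and 50 nM ULight-TopoIIα substrate. Stopped with EDTA plus Eu anti-TopoIIα antibody; TR-FRET read after 60 min.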

In the next test the test system is PAXF1657 KO Clone #4. Description: 7-day cellular proliferation assay (CellTiter-Glo), PAXF1657 KO Clone #4. In kind it is cell-based. The conditions noted are these: proliferation, read-out: GeoMean IC50 (uM) PAXF1657 KO Clone #4. Summed up:
as §1

The target of test [2] is T1, GRK2. Description: GRK2 Degradation Assay and Western Blot in PAXF1657 cells. Also on record: endogenous in cells; host or cells: PAXF1657. The test is classed as cell-based. The conditions noted are these: for inhibition at 0.3 µM: Conc 0.3 uM; for inhibition at 0.3 µM / inhibition at 1 µM / inhibition at 3 µM: read-out: Degradation Assay - 3 point: Degradation (%); for inhibition at 1 µM: Conc 1 uM; for inhibition at 3 µM: Conc 3 uM; for DC50: PAXF1657, 24 h, read-out: Degradation Assay - Full Dose Response: IC50 (uM) [cell line: PAXF1657, time point: 24 h]. Summed up: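 PAXF1657 cells grown to 70% confluency, then treated with compounds at 0–10 μM for 6 to 24 h at 37 °C. Lysates in PBS with 1% NP40 run on SDS-PAGE. GRK2 protein detected by western blot with β-actin as loading reference, using ECL chemiluminescence.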
Background: Immunoblotting shows a protein as a band on a membrane.

For the compound `C[C@@H](NC(=O)c1cccc(NCc2nnc(-c3ccncn3)n2C)c1)c1cccc(OCCCCCCOCCOCCOCCC(=O)N2CCN(c3ccc4c(c3)CN(C3CCC(=O)NC3=O)C4=O)CC2)c1` (stereo partly drawn) [Compound D131, N-((1R)-1-(3-(6-(2-(2-(3-(4-(2-(2,6-dioxopiperidin-3-yl)-1-oxoisoindolin-5-yl)piperazin-1-yl)-3-oxopropoxy)ethoxy)ethoxy)hexyloxy)phenyl)ethyl)-3-((4-methyl-5-(pyrimidin-4-yl)-4H-1,2,4-triazol-3-yl)methylamino)benzamide], in the test with PAXF1657 EV, the IC50 came out at 220 nM. In addition, on GRK2 [1], the IC50 is 26.6 nM. Also, the IC50 in the test on PAXF1657 KO Clone #4 was > 30 µM. Further, on GRK2 [2], the inhibition at 0.3 µM stood at 17.5%, the inhibition at 1 µM was determined as 68.7%, the inhibition at 3 µM worked out at 89.2% and the DC50 came out at 0.24 µM.

For the compound `C[C@@H](NC(=O)c1cccc(NCc2nnc(-c3ccncn3)n2C)c1)c1cccc(OCCCCCCOCC(=O)N2CCN(c3ccc4c(c3)CN(C3CCC(=O)NC3=O)C4=O)CC2)c1` (stereo partly drawn) [Compound D132, N-((1R)-1-(3-(6-(2-(4-(2-(2,6-dioxopiperidin-3-yl)-1-oxoisoindolin-5-yl)piperazin-1-yl)-2-oxoethoxy)hexyloxy)phenyl)ethyl)-3-((4-methyl-5-(pyrimidin-4-yl)-4H-1,2,4-triazol-3-yl)methylamino)benzamide], in the test with PAXF1657 EV, the IC50 amounted to 40 nM. For the same compound, the IC50 on GRK2 [1] was 16.3 nM. The IC50 in the test on PAXF1657 KO Clone #4 was > 30 µM. Also, on GRK2 [2], the inhibition at 0.3 µM turned out to be 87.4%, the inhibition at 1 µM came to 92.4%, the inhibition at 3 µM turned out to be 91.5% and the DC50 was 0.12 µM.

In the case of `C[C@@H](NC(=O)c1cccc(NCc2nnc(-c3ccncn3)n2C)c1)c1cccc(OCCCCCCOCC(=O)N2CCN(c3cc4c(cc3F)C(=O)N(C3CCC(=O)NC3=O)C4=O)CC2)c1` (stereo partly drawn) [Compound D133, N-((1R)-1-(3-(6-(2-(4-(2-(2,6-dioxopiperidin-3-yl)-6-fluoro-1,3-dioxoisoindolin-5-yl)piperazin-1-yl)-2-oxoethoxy)hexyloxy)phenyl)ethyl)-3-((4-methyl-5-(pyrimidin-4-yl)-4H-1,2,4-triazol-3-yl)methylamino)benzamide], in the test on PAXF1657 EV, the IC50 worked out at 710 nM. For the same compound, on GRK2 [1], the half-maximal inhibitory concentration (IC50) amounted to 9.05 nM. For the same compound, in the test with PAXF1657 KO Clone #4, the IC50 is > 30 µM. For the same compound, at GRK2 [2], the inhibition at 0.3 µM came to 57.7%, the inhibition at 1 µM was found to be 82.4% and the inhibition at 3 µM was 86.7%.

As for `C[C@@H](NC(=O)c1cccc(NCc2nnc(-c3ccncn3)n2C)c1)c1ccc(OCCCCCCOCCOCCOCCC(=O)N2CCN(c3cc4c(cc3F)C(=O)N(C3CCC(=O)NC3=O)C4=O)CC2)cc1` (stereo partly drawn) [Compound D137, N-((1R)-1-(4-(6-(2-(2-(3-(4-(2-(2,6-dioxopiperidin-3-yl)-6-fluoro-1,3-dioxoisoindolin-5-yl)piperazin-1-yl)-3-oxopropoxy)ethoxy)ethoxy)hexyloxy)phenyl)ethyl)-3-((4-methyl-5-(pyrimidin-4-yl)-4H-1,2,4-triazol-3-yl)methylamino)benzamide], in the test on PAXF1657 EV, the IC50 came out at 140 nM. Further, at GRK2 [1], the IC50 was 12.5 nM. Moreover, the IC50 in the test on PAXF1657 KO Clone #4 was determined as 22.8 µM. Moreover, on GRK2 [2], the inhibition at 0.3 µM was 71.2%, the inhibition at 1 µM came to 79.2% and the inhibition at 3 µM was 80.4%.

In the case of `C[C@@H](NC(=O)c1cccc(NCc2nnc(-c3ccncn3)n2C)c1)c1cccc(OCCCCCCOCCOCC(=O)N2CCN(c3ccc4c(c3)CN(C3CCC(=O)NC3=O)C4=O)CC2)c1` (stereo partly drawn) [Compound D138, N-((1R)-1-(3-(6-(2-(2-(4-(2-(2,6-dioxopiperidin-3-yl)-1-oxoisoindolin-5-yl)piperazin-1-yl)-2-oxoethoxy)ethoxy)hexyloxy)phenyl)ethyl)-3-((4-methyl-5-(pyrimidin-4-yl)-4H-1,2,4-triazol-3-yl)methylamino)benzamide hydrochloride], the half-inhibitory concentration (IC50) in the test with PAXF1657 EV is 660 nM. Further, the IC50 on GRK2 [1] is 20.2 nM. For the same compound, in the test on PAXF1657 KO Clone #4, the IC50 is > 30 µM. Also, at GRK2 [2], the inhibition at 0.3 µM is 85%, the inhibition at 1 µM came to 92%, the inhibition at 3 µM was found to be 95% and the DC50 stood at 0.137 µM.

With `C[C@@H](NC(=O)c1cccc(NCc2nnc(-c3ccncn3)n2C)c1)c1cccc(OCCCCCCOCCOCC(=O)N2CCN(c3cc4c(cc3F)C(=O)N(C3CCC(=O)NC3=O)C4=O)CC2)c1` (stereo partly drawn) [Compound D139, N-((1R)-1-(3-(6-(2-(2-(4-(2-(2,6-dioxopiperidin-3-yl)-6-fluoro-1,3-dioxoisoindolin-5-yl)piperazin-1-yl)-2-oxoethoxy)ethoxy)hexyloxy)phenyl)ethyl)-3-((4-methyl-5-(pyrimidin-4-yl)-4H-1,2,4-triazol-3-yl)methylamino)benzamide], the IC50 in the test with PAXF1657 EV came to 200 nM. In addition, the IC50 at GRK2 [1] was 13.6 nM. For the same compound, the IC50 with PAXF1657 KO Clone #4 worked out at 26.6 µM. Moreover, on GRK2 [2], the inhibition at 0.3 µM amounted to 86%, the inhibition at 1 µM amounted to 92%, the inhibition at 3 µM is 95% and the DC50 was 0.23 µM.

Turning to `C[C@@H](NC(=O)c1cccc(NCc2nnc(-c3ccncn3)n2C)c1)c1cccc(OCCCCCCOCCOCCN2CCN(c3cc4c(cc3F)C(=O)N(C3CCC(=O)NC3=O)C4=O)CC2)c1` (stereo partly drawn) [Compound D140, N-((1R)-1-(3-(6-(2-(2-(4-(2-(2,6-dioxopiperidin-3-yl)-6-fluoro-1,3-dioxoisoindolin-5-yl)piperazin-1-yl)ethoxy)ethoxy)hexyloxy)phenyl)ethyl)-3-((4-methyl-5-(pyrimidin-4-yl)-4H-1,2,4-triazol-3-yl)methylamino)benzamide], the IC50 with PAXF1657 EV stood at 780 nM. Besides, the IC50 at GRK2 [1] was determined as 20.9 nM. The IC50 with PAXF1657 KO Clone #4 worked out at 19.9 µM. On GRK2 [2], the inhibition at 0.3 µM stood at 88%, the inhibition at 1 µM came out at 92%, the inhibition at 3 µM worked out at 93% and the DC50 amounted to 0.12 µM.

For the compound `C[C@@H](NC(=O)c1cccc(NCc2nnc(-c3ccncn3)n2C)c1)c1cccc(OCCCCCCOCCOCCNc2ccc3c(c2)CN(C2CCC(=O)NC2=O)C3=O)c1` (stereo partly drawn) [Compound D141, N-((1R)-1-(3-(6-(2-(2-(2-(2,6-dioxopiperidin-3-yl)-1-oxoisoindolin-5-ylamino)ethoxy)ethoxy)hexyloxy)phenyl)ethyl)-3-((4-methyl-5-(pyrimidin-4-yl)-4H-1,2,4-triazol-3-yl)methylamino)benzamide], the IC50 in the test on PAXF1657 EV was 170 nM. Further, the IC50 on GRK2 [1] is 19.5 nM. Besides, in the test with PAXF1657 KO Clone #4, the IC50 was 1.66 µM. Further, on GRK2 [2], the inhibition at 0.3 µM came out at 89%, the inhibition at 1 µM stood at 88%, the inhibition at 3 µM came out at 67% and the DC50 is 8.71 µM.

With `C[C@@H](NC(=O)c1cccc(NCc2nnc(-c3ccncn3)n2C)c1)c1cccc(OCCCCCCOCCOCCNc2cccc3c2CN(C2CCC(=O)NC2=O)C3=O)c1` (stereo partly shown) [Compound D143], in the test with PAXF1657 EV, the IC50 is 110 nM. Moreover, the IC50 at GRK2 [1] amounted to 10.4 nM. Besides, the IC50 in the test on PAXF1657 KO Clone #4 came out at 5.32 µM. In addition, on GRK2 [2], the inhibition at 0.3 µM was found to be 88%, the inhibition at 1 µM is 82%, the inhibition at 3 µM amounted to 83% and the DC50 was 0.11 µM.

On to `C[C@@H](NC(=O)c1cccc(NCc2nnc(-c3ccncn3)n2C)c1)c1ccc(OCCCCCCOCCOCCOCCCCCC(=O)Nc2cccc3c2CN(C2CCC(=O)NC2=O)C3=O)cc1` (stereo partly drawn) [Compound D147, N-((1R)-1-(4-(6-(2-(2-(6-(2-(2,6-dioxopiperidin-3-yl)-1-oxoisoindolin-4-ylamino)-6-oxohexyloxy)ethoxy)ethoxy)hexyloxy)phenyl)ethyl)-3-((4-methyl-5-(pyrimidin-4-yl)-4H-1,2,4-triazol-3-yl)methylamino)benzamide], for which the IC50 is 110 nM with PAXF1657 EV, 10.1 nM at GRK2 [1] and > 30 µM in the test on PAXF1657 KO Clone #4. In addition, the inhibition at 0.3 µM on GRK2 [2] is 73.8%. Moreover, the inhibition at 1 µM on GRK2 [2] was 81.6%. The inhibition at 3 µM at GRK2 [2] is 83.1%.
